Values of other authors as cited in US20240173256A1, “HDL MIMICKING TARGETED DRUG DELIVERY SYSTEM FOR THE TREATMENT OF SOLID TUMORS” (University of North Texas Health Science Center, priority 2022, published 2024).
Read-outs that look alike come from different tables or passages of the source.

Assays:
[1] = rodents
[2] = patients

Question: With CCCCC(=O)OCC(=O)[C@]1(O)Cc2c(O)c3c(c(O)c2[C@@H](O[C@H]2C[C@H](NCc4ccccc4)[C@H](O)[C@H](C)O2)C1)C(=O)c1c(OC)cccc1C3=O [AD 198, N-Benzyladriamycin-14-valerate] as the compound, how does the Cardiotoxicity [1] read?
Answer: Its Cardiotoxicity is “no significant cardiotoxicity”.

Question: For COc1cccc2c1C(=O)c1c(O)c3c(c(O)c1C2=O)C[C@@](O)(C(=O)CO)C[C@@H]3O[C@H]1C[C@H](N)[C@H](O)[C@H](C)O1 [doxorubicin], which Cardiotoxicity [1] is on record?
Answer: The Cardiotoxicity was “ventricular damage proportionate to dosage”.

Question: What about the “Incidence of congestive heart failure” value ([2]; 400 mg/m^2) of the same compound?
Answer: Its value is 4.7%.

Question: What about the “Incidence of congestive heart failure” value ([2]; 550 mg/m^2) of the same compound?
Answer: Its value is 26%.

Question: What about the “Incidence of congestive heart failure” value ([2]; 700 mg/m^2) of the same compound?
Answer: Its value is 48%.
